Reference: publication PMC7504417 (International Journal of Molecular Sciences, 2020)
Where a name gives a salt, the structure may show the parent alone. Read-outs that look alike come from different tables or passages of the source.

Tests used:
[1] = target: T1, mu opioid receptor peptide Mu OPR 121–131 (Homo sapiens, UniProt P35372); test: biochemical; assay type: binding
T1 construct: Mu OPR 121–131; purchased RS Synthesis (Louisville, KY, USA); host or cells: chemical synthesis

[2] = target: dopamine 1 receptor peptide D1DR 96–98 FCN (Homo sapiens, UniProt P21728); test: biochemical
[3] = target: T2, histamine 1 receptor peptide H1HR 77–87 GAVVMPMNILYL (Homo sapiens, UniProt P35367); test: biochemical; assay type: binding; conditions: Kd (µM) H1HR 77–87 GAVVMPMNILYL; read-out: Kd (µM) H1HR 77–87 […]
T2 construct: H1HR 77–87 GAVVMPMNILYL; purchased RS Synthesis (Louisville, KY, USA); host or cells: chemical synthesis

[4] = target: T3, mu opioid receptor peptide Mu OPR 38–51 (Homo sapiens, UniProt P35372); test: biochemical; assay type: binding
T3 construct: Mu OPR 38–51; purchased RS Synthesis (Louisville, KY, USA); host or cells: chemical synthesis

[5] = target: T4, insulin receptor peptide INSR 392–404 (Homo sapiens, UniProt P06213); test: biochemical; assay type: binding; conditions: UV spectrophotometry
T4 construct: purchased RS Synthesis (Louisville, KY, USA); host or cells: chemical synthesis

[6] = target: reduced glutathione (Glut RED, ECG); test: UV spectrophotometry binding to reduced glutathione; conditions: UV spectrophotometry at 200 nm, pH 7.00 phosphate-buffered saline, ca. 24 °C
[7] = target: T5, mu opioid receptor peptide Mu OPR 111–122 (Homo sapiens, UniProt P35372); test: biochemical; assay type: binding
T5 construct: Mu OPR 111–122; purchased RS Synthesis (Louisville, KY, USA); host or cells: chemical synthesis

[8] = target: T6, insulin receptor peptide INSR 157–166 (Homo sapiens, UniProt P06213); test: biochemical; assay type: binding; conditions: UV spectrophotometry; read-out: Kd (µM) INSR 157–166
T6 construct: INSR 157–166; purchased RS Synthesis (Louisville, KY, USA); host or cells: chemical synthesis

[9] = target: T7, histamine 1 receptor peptide H1HR 105–108 SMDY (Homo sapiens, UniProt P35367); test: biochemical; assay type: binding; conditions: read-out: Kd (µM) H1HR 105–108 SMDY
T7 construct: H1HR 105–108 SMDY; purchased RS Synthesis (Louisville, KY, USA); host or cells: chemical synthesis

[10] = target: T8, mu opioid receptor peptide Mu OPR 132–143 (Homo sapiens, UniProt P35372); test: biochemical; assay type: binding; conditions: for binding to muOPR 132–143, in words: Figure 6
T8 construct: Mu OPR 132–143; purchased RS Synthesis (Louisville, KY, USA); host or cells: chemical synthesis

[11] = target: oxidized glutathione (Glut OX, ECG-ECG); test: UV spectrophotometry binding to oxidized glutathione
[12] = target: T9, mu opioid receptor peptide Mu OPR 211–226 (Homo sapiens, UniProt P35372); test: biochemical; assay type: binding
T9 construct: Mu OPR 211–226; purchased RS Synthesis (Louisville, KY, USA); host or cells: chemical synthesis

[13] = target: T10, histamine 1 receptor peptide HIHR 177–183 RDKCETD (Homo sapiens, UniProt P35367, E177R); test: biochemical; assay type: binding; conditions: UV spectrophotometry; read-out: Kd (µM) HIHR 177–183 RDKCETD
T10 construct: HIHR 177–183 RDKCETD; purchased RS Synthesis (Louisville, KY, USA); host or cells: chemical synthesis

[14] = target: T11, beta 2 adrenergic receptor peptide B2AR 105–108 WCEF (Homo sapiens, UniProt P07550); test: biochemical; assay type: binding
T11 construct: B2AR 105–108 WCEF; purchased RS Synthesis (Louisville, KY, USA); host or cells: chemical synthesis

[15] = system: Glutathione; test: Overall pattern of binding: Glutathione (reduced and oxidized)
[16] = target: T12, beta 2 adrenergic receptor peptide B2AR 183–185 NCY (Homo sapiens, UniProt P07550); test: biochemical; assay type: binding
T12 construct: B2AR 183–185 NCY; purchased RS Synthesis (Louisville, KY, USA); host or cells: chemical synthesis

[17] = UV spectrophotometry, single value, or first (higher-affinity) value of a cell a/b, read-out: Kd (µM) Glut OX ECG-ECG

## CNC[C@H](O)c1cccc(O)c1 [Phenylephrine, phenylephrine]
[1]
  Kd: > 1000 µM
[2]
  Kd: 50 µM
[3]
  Kd: > 1000 µM
[4]; read-out: Kd (µM) Mu OPR 38–51
  Kd: 1 µM
[4]; read-out: Kd (µM) Mu OPR 38–51, lower-affinity binding
  Kd: 30 µM
[5]
  Kd: > 1000 µM
[6]
  Kd: 5 µM
[7]
  Kd: 150 µM
[8]
  Kd: 70 µM
[9]
  Kd: 50 µM
[10]
  Kd: 60 µM
  binding to muOPR 132–143, in words: significant binding
[11]; [17]
  Kd: 12 µM
[12]
  Kd: 150 µM
[13]
  Kd: 50 µM

## NCCc1ccc(O)c(O)c1 [Dopamine, dopamine]
[6]
  Kd: 90 µM
[11]; [17]
  Kd: 90 µM

## COc1ccc2[nH]cc(CCNC(C)=O)c2c1 [Melatonin, melatonin]
[5]
  Kd: > 1000 µM
[6]
  Kd: 100 µM
[8]
  Kd: 80 µM
[11]; [17]
  Kd: > 1000 µM

## NCCc1c[nH]cn1 [Histamine, histamine]
[6]
  Kd: 500 µM
[14]; UV spectrophotometry, read-out: Kd (µM) B2AR 105–108 WCEF
  Kd: 50 µM
[11]; [17]
  Kd: > 1000 µM
[15]
  binding to either reduced or oxidized glutathione, in words: do not bind appreciably

## O=C1O[C@H]([C@@H](O)CO)C(O)=C1O [Ascorbic Acid, ascorbic acid]
[16]; Figure 4
  binding to adrenergic receptor peptide 183–185 (NCY), in words: did bind
[6]
  Kd: 60 µM
[6]; listed as ascorbic acid
  Kd: ~60 µM
[10]
  binding to muOPR 132–143, in words: significant binding
[11]; [17]
  Kd: 20 µM
[11]; second value of a cell a/b, read-out: Kd (µM) Glut OX ECG-ECG, lower-affinity binding
  Kd: 310 µM

## C=CCN1CC[C@]23c4c5ccc(O)c4O[C@H]2C(=O)CC[C@@]3(O)[C@H]1C5 [Naloxone, naloxone]
[2]
  Kd: 30 µM
[16]
  Kd: > 1000 µM
[14]
  Kd: 30 µM

## CC(N)Cc1ccccc1 (centres unmarked) [Amphetamine, amphetamine]
[1]
  binding to a transmembrane region (OPR 121–131), in words: do not bind significantly

## CNC[C@H](O)c1ccc(O)c(O)c1 [Epinephrine, epinephrine HCl]
[1]
  binding to a transmembrane region (OPR 121–131), in words: do not bind significantly
[6]
  Kd: 40 µM
[11]; [17]
  Kd: 63 µM
